# Assay results taken from publication PMC6315541, “Nile Tilapia Derived Antimicrobial Peptide TP4 Exerts Antineoplastic Activity Through Microtubule Disruption” (Marine Drugs, 2018).
# Entries after “also recorded” stand apart in the source; their conditions may differ.
# Tests used:
# A549 cells = experiment: Cell viability (CellTiter-Glo ATP assay) in A549 cells; format: cell-based, human; details: 24 h; for relative ATP levels (cell viability): CellTiter-Glo ATP assay, luminescence, mean ± SD of three independent assays, n ≥ 5 wells per dose; for cytotoxicity to A549 cells (in words): doses 3.35-20.12 µM, ATP assay, Figure 6A
# Method: (§1) Figure 6 Loss of cancer-killing ability in TP4 mutants. (A) Cell viability in A549 cells was determined by the adenosine triphosphate (ATP) assay following treatment with varying doses of TP4 and TP4 mutants for 24 h. Multiple wells were analyzed for each assay. Results represent the mean ± SD. Statistical comparisons between groups were performed using two-way ANOVA: a, not significant; b, p < 0.05; d, p < 0.001. Statistical analyses are shown in Supplementary Table S1. (B) Cells were stained for TP4 (WT panel), FITC (MT-1 to MT-6 panels), α-Tubulin, and F-actin. Hoechst33342 was used for nuclei staining. Boxed regions are magnified in the furthest right panels. […] Bar: 20 μm.
# The A549 cell line (Bioresource Collection and Research Center (BCRC) 60074) was purchased from the BCRC and cultured according to BCRC recommendations. For the cell viability and transfection assay, 4–5 × 10^3 cells were seeded into the wells of a 96-well plate and cultured overnight. Cells were then treated according to the indicated doses and times. Cell viability was quantified using the CellTiter-Glo® Luminescent Cell Viability Assay kit (ATP assay) (Madison, WI, USA) as previously described. The luminescent signal was measured using a photometer (SpectraMax® i3, Molecular Devices, Wals, Austria).
# For the multi-well based assay, cells were plated at least in quadruplicate. Data were collected from independently repeated experiments (N ≥ 3) and were analyzed by Prism5 software (GraphPad Inc., La Jolla, CA, USA). Statistical significance was determined by a two-tailed Student’s t-test or one-way/two-way analysis of variance (ANOVA) with a Bonferroni post hoc test. Differences were considered statistically significant at p < 0.05. […]
# Supplementary Table S1. Cellular toxicit y of TP 4 to A549 cells was evaluated b y cell viability. Results of statis tical tests on data in Figu re 6A are shown. Multiple wells were anal yzed for each ex periment (n ≥ 5 wells per do se). Results represent the mean ± SD from three independent assays. Statistical comparisons between mock versus TP4 treatment groups were performed using two -way ANOVA anal ysis with Bonferroni post-hoc test: a, not signi ficant; b, P < 0.05; c, P < 0.01; d, P < 0.001. […]
# (A-G) Th e helical projection plot and s tructural model o f TP4 (A) and TP4 variants (MT-1 to MT-6, B-G ). The helical proj ecti on was produced b y an online helical wheel projection program (http://rzlab.ucr.edu/scripts/wheel/wheel.cgi). Amino acid residues are numbered and each amino acid is connected with lines to indicate its relative position along the helix. The hydrophobic residues are shown as diamonds ; h ydrophilic residues are circles. Residues with negative charge are shown as trian gles and positively charged residues are pentagons. Hydrophobicity is color coded. The
# [1] = tested on: microtubule network (α-Tubulin) in A549 cells; experiment: Immunocytochemistry of microtubule network and peptide uptake in A549 cells; format: cell-based, human; details: A549 cells; TP4 6.71 μM, 3 h; FITC-labeled mutants; Figure 6B
# Method: To examine whether TP4 may affect microtubule dynamics, A549 cells were treated with TP4, and cytoskeletal elements were analyzed by immunocytochemistry (ICC). […] We then asked whether TP4 treatment may influence tubulin protein levels by performing Western blots on lysates from A549 cells that had been treated with vehicle or TP4. […] We next conducted a microtubule regrowth assay to further address whether TP4 may disrupt microtubule polymerization. TP4 was applied to A549 cells that had been treated with or without Nocodazole (20 μM) treatment for 6 h, which completely depolymerizes the microtubule network. The repolymerization of microtubules was then initialized by the addition of fresh recovery medium, and regrowth was analyzed by ICC.
# While the reduced toxicity may result from impaired binding to tubulin, it is also possible that such effects may be caused by conformational changes in the TP4 mutants, see Supplementary Figure S1C,D, which prevent intracellular penetration. To test this possibility, ICC was conducted to evaluate the cellular localization and the effects on microtubules. […] For both Gly and Ala substitution mutants, FITC-labeled TP4 mutants were able to be taken up intracellularly, see Figure 6B, panels MT-1 to MT-6. However, the microtubule network was only affected in MT-1- and MT-4-treated cells and not the other mutant-treated groups, as shown in Figure 6B.
# as §1
# Cells were stained with TP4 (1:1000), FITC (1:500, ThermoFisher Scientific, clone 1F8-1E4), α-Tubulin (1:500), and appropriate Alexa Flour conjugated secondary antibody (1:500; ThermoFisher Scientific, Eugene, OR, USA). Hochest33342 was used for nuclear staining, and Alexa Fluor 647-conjugated phalloidin (1:200, Thermo Fisher Scientific, Eugene, OR, USA) was used to stain F-actin. For the confocal microscopic analysis, samples were mounted with fluorescent mounting medium (ProLong Gold Antifade Reagent, ThermoFisher Scientific, Eugene, OR, USA) and images were obtained with a FV3000 laser-scanning confocal microscope (Olympus), using a 60 × objective lens (Plapon 60 × OSC2, N.A. 1.4, oil) with the 4′,6-diamidino-2-phenylindole (DAPI) ([…]), green fluorescent protein (GFP) (EX 470, EM 525 for enhanced GFP (EGFP)), and Cy5 ([…]) emission filters. FV31S software (Olympus, Tokyo, Japan) was used for image acquisition.
Substance,relative ATP levels (cell viability) (A549 cells; 3.35 µM),relative ATP levels (cell viability) (A549 cells; 5.03 µM),relative ATP levels (cell viability) (A549 cells; 6.71 µM),relative ATP levels (cell viability) (A549 cells; 20.12 µM),cytotoxicity to A549 cells (in words) (A549 cells),effect on microtubule network (α-Tubulin ICC) [1]
"MT-1: TP4 mutant, Phe1 to Gly (GIHHIIGGLFSAGKAIHRLIRRRRR)",0.931±0.160,1.044±0.280,0.852 ± 0.145,0.003±0.001,decreased cytotoxicity,affected; also recorded: microtubule abnormalities were observed
"MT-4: TP4 mutant, Phe1 to Ala (AIHHIIGGLFSAGKAIHRLIRRRRR)",0.454±0.169,0.241±0.094,0.070±0.045,0.001±0.007,strongly cytotoxic,affected; also recorded: microtubule abnormalities were observed
